We go through four compounds from PMC2939296 (Bioorganic & medicinal chemistry letters, 2010).

For assay [1], the target named is T1, rh-MIF (Homo sapiens, UniProt P14174).
T1 sequence (P14174 2-115 limits assumed): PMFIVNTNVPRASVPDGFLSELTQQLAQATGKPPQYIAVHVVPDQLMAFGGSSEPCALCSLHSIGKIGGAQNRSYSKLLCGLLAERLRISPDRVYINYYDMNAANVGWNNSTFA
The assay can be described thus: Mass spectrometry. The note with it: 30 μM rh-MIF plus 30 μM compound, 1 hr at room temperature in the dark.

The target of assay [2] is T2, Human MIF (Homo sapiens, UniProt P14174).
T2 sequence (P14174 2-115 limits assumed): T1 sequence (P14174 2-115 limits assumed)
The note with it: cited from earlier work.

Assay [3] addresses T3, MIF-CD74 (Homo sapiens, UniProt P14174).
T3 sequence (P14174 2-115 limits assumed): T1 sequence (P14174 2-115 limits assumed)
The note with it: cited from earlier work.

Turning to `Cc1ccc2oc(=O)n(Cc3cccc(O)c3)c2c1` [Cp 5], the “covalent adduct with MIF by mass spectrometry” value in assay [1] was “no additional peaks emerged”.

For `CC(=O)N=C1C=CC(=O)C=C1` [NAPQI], the “effect on MIF tautomerase activity” value in assay [2] is “decreases”. Besides, the “effect on MIF receptor binding activity” value in assay [3] was “decreases”. Turning to `Cc1ccc2oc(=O)n(Cc3ccccc3)c2c1` [Cp 1], in assay [2], the “mode of inhibition of tautomerase activity (Michaelis-Menten analyses)” value is “competitive inhibitor”.

Consider `Ic1cc(-c2ccccc2)ncn1` [Cp 4-IPP, 4-iodo-6-phenylpyrimidine], for which, in assay [1], the “covalent adduct with MIF by mass spectrometry” value is recorded as “appearance of the covalent adduct at the mass of MIF + ca. 155 Da”.
